Drawing on patent publication US9611275B2 (priority 2012, dated 2017), this text covers Papp for 18 compounds.

In general, Papp refers to a coefficient for how fast a substance crosses the barrier.

The structures appear in SMILES notation.

A short description of this data set: Assay for determination of apparent permeability (Papp), bi-directional transport. Particulars: pig, LLC-PK1.
On to `COc1c(C)cc(CO[C@H]([C@H]2O[C@@H]3SC(N(C)C)=N[C@@H]3[C@@H](O)[C@@H]2O)C(F)(F)F)cc1C` [Example 60, (3aR,5S,6S,7R,7aR)-2-(dimethylamino)-5-((R)-2,2,2-trifluoro-1-(4-methoxy-3,5-dimethylbenzyloxy)ethyl)-5,6,7,7a-tetrahydro-3aH-pyrano[3,2-d]thiazole-6,7-diol], for which the Papp at 3 h, 1 μM is 29 ×10⁻⁶ cm/s.

For `CN(C)C1=N[C@@H]2[C@@H](O)[C@H](O)[C@@H]([C@H](OCc3cccc(F)c3)C(F)(F)F)O[C@@H]2S1` [Example 63, (3aR,5S,6S,7R,7aR)-2-(dimethylamino)-5-((S)-2,2,2-trifluoro-1-(3-fluorobenzyloxy)ethyl)-5,6,7,7a-tetrahydro-3aH-pyrano[3,2-d]thiazole-6,7-diol], the Papp at 3 h, 1 μM worked out at 31.2 ×10⁻⁶ cm/s.

Turning to `CN(C)C1=N[C@@H]2[C@@H](O)[C@H](O)[C@@H]([C@@H](OCc3cccc(C(F)(F)F)c3)C(F)(F)F)O[C@@H]2S1` [Example 67, (3aR,5S,6S,7R,7aR)-2-(dimethylamino)-5-((R)-2,2,2-trifluoro-1-(3-(trifluoromethyl)benzyloxy)ethyl)-5,6,7,7a-tetrahydro-3aH-pyrano[3,2-d]thiazole-6,7-diol], the Papp at 3 h, 1 μM came out at 29.5 ×10⁻⁶ cm/s.

In the case of `CN(C)C1=N[C@@H]2[C@@H](O)[C@H](O)[C@@H]([C@@H](OCc3ccccc3C(F)(F)F)C(F)(F)F)O[C@@H]2S1` [Example 68, (3aR,5S,6S,7R,7aR)-2-(dimethylamino)-5-((R)-2,2,2-trifluoro-1-(2-(trifluoromethyl)benzyloxy)ethyl)-5,6,7,7a-tetrahydro-3aH-pyrano[3,2-d]thiazole-6,7-diol], the Papp at 3 h, 1 μM was 34.1 ×10⁻⁶ cm/s.

Consider `CN(C)C1=N[C@@H]2[C@@H](O)[C@H](O)[C@@H]([C@@H](OCc3ccc(CF)cc3)C(F)(F)F)O[C@@H]2S1` [Example 69, (3aR,5S,6S,7R,7aR)-2-(dimethylamino)-5-((R)-2,2,2-trifluoro-1-(4-(fluoromethyl)benzyloxy)ethyl)-5,6,7,7a-tetrahydro-3aH-pyrano[3,2-d]thiazole-6,7-diol], for which the Papp at 3 h, 1 μM was determined as 31.1 ×10⁻⁶ cm/s.

Take `CCN(C)C1=N[C@@H]2[C@@H](O)[C@H](O)[C@@H]([C@H](OC)C(F)(F)F)O[C@@H]2S1` [Example 72, (3aR,5S,6S,7R,7aR)-2-(ethyl(methyl)amino)-5-((S)-2,2,2-trifluoro-1-methoxyethyl)-5,6,7,7a-tetrahydro-3aH-pyrano[3,2-d]thiazole-6,7-diol]: the Papp at 3 h, 1 μM came to 25.4 ×10⁻⁶ cm/s.

As for `CCN(C)C1=N[C@@H]2[C@@H](O)[C@H](O)[C@@H]([C@@H](OC)C(F)(F)F)O[C@@H]2S1` [Example 73, (3aR,5S,6S,7R,7aR)-2-(ethyl(methyl)amino)-5-((R)-2,2,2-trifluoro-1-methoxyethyl)-5,6,7,7a-tetrahydro-3aH-pyrano[3,2-d]thiazole-6,7-diol], the Papp at 3 h, 1 μM worked out at 19.9 ×10⁻⁶ cm/s.

For the compound `CNC1=N[C@@H]2[C@@H](O)[C@H](O)[C@@H]([C@@H](OCCC3CCCCC3)C(F)(F)F)O[C@@H]2S1` [Example 80, (3aR,5S,6S,7R,7aR)-5-((R)-1-(2-cyclohexylethoxy)-2,2,2-trifluoroethyl)-2-(methylamino)-5,6,7,7a-tetrahydro-3aH-pyrano[3,2-d]thiazole-6,7-diol], the Papp at 3 h, 1 μM was 28.5 ×10⁻⁶ cm/s.

For `CNC1=N[C@@H]2[C@@H](O)[C@H](O)[C@@H]([C@@H](OCCCc3ccc(F)cc3)C(F)(F)F)O[C@@H]2S1` [Example 83, (3aR,5S,6S,7R,7aR)-2-(methylamino)-5-((R)-2,2,2-trifluoro-1-(3-(4-fluorophenyl)propoxy)ethyl)-5,6,7,7a-tetrahydro-3aH-pyrano[3,2-d]thiazole-6,7-diol], the Papp at 3 h, 1 μM worked out at 29.7 ×10⁻⁶ cm/s.

`CNC1=N[C@@H]2[C@@H](O)[C@H](O)[C@@H]([C@@H](OCc3ccccc3)C(F)(F)F)O[C@@H]2S1` [Example 84, (3aR,5S,6S,7R,7aR)-5-((R)-1-(benzyloxy)-2,2,2-trifluoroethyl)-2-(methylamino)-5,6,7,7a-tetrahydro-3aH-pyrano[3,2-d]thiazole-6,7-diol]: the Papp at 3 h, 1 μM was determined as 27 ×10⁻⁶ cm/s.

In the case of `CCc1ccc(CO[C@H]([C@H]2O[C@@H]3SC(NC)=N[C@@H]3[C@@H](O)[C@@H]2O)C(F)(F)F)cc1` [Example 86, (3aR,5S,6S,7R,7aR)-5-((R)-1-(4-ethylbenzyloxy)-2,2,2-trifluoroethyl)-2-(methylamino)-5,6,7,7a-tetrahydro-3aH-pyrano[3,2-d]thiazole-6,7-diol], the Papp at 3 h, 1 μM is 29.9 ×10⁻⁶ cm/s.

Turning to `CNC1=N[C@@H]2[C@@H](O)[C@H](O)[C@@H]([C@@H](OCc3ccccc3C(F)(F)F)C(F)(F)F)O[C@@H]2S1` [Example 93, (3aR,5S,6S,7R,7aR)-2-(methylamino)-5-((R)-2,2,2-trifluoro-1-(2-(trifluoromethyl)benzyloxy)ethyl)-5,6,7,7a-tetrahydro-3aH-pyrano[3,2-d]thiazole-6,7-diol], the Papp at 3 h, 1 μM turned out to be 29.2 ×10⁻⁶ cm/s.

In the case of `CNC1=N[C@@H]2[C@@H](O)[C@H](O)[C@@H]([C@@H](OCc3ccc(C(F)(F)F)cc3)C(F)(F)F)O[C@@H]2S1` [Example 94, (3aR,5S,6S,7R,7aR)-2-(mcthylamino)-5-((R)-2,2,2-trifluoro-1-(4-(trifluoromethyl)benzyloxy)ethyl)-5,6,7,7a-tetrahydro-3aH-pyrano[3,2-d]thiazole-6,7-diol], the Papp at 3 h, 1 μM amounted to 24.6 ×10⁻⁶ cm/s.

Regarding `CNC1=N[C@@H]2[C@@H](O)[C@H](O)[C@@H]([C@@H](OCc3ccc(OC)cc3)C(F)(F)F)O[C@@H]2S1` [Example 97, 2-(methylamino)-5-(2,2,2-trifluoro-1-(4-methoxybenzyloxy)ethyl)-5,6,7,7a-tetrahydro-3aH-pyrano[3,2-d]thiazole-6,7-diol], the Papp at 3 h, 1 μM stood at 24.7 ×10⁻⁶ cm/s.

On to `CNC1=N[C@@H]2[C@@H](O)[C@H](O)[C@@H]([C@@H](OCc3ccc(OC)c(C(F)(F)F)c3)C(F)(F)F)O[C@@H]2S1` [Example 98, (3aR,5S,6S,7R,7aR)-2-(methylamino)-5-((R)-2,2,2-trifluoro-1-(4-methoxy-3-(trifluoromethyl)benzyloxy)ethyl)-5,6,7,7a-tetrahydro-3aH-pyrano[3,2-d]thiazole-6,7-diol], for which the Papp at 3 h, 1 μM came to 29.1 ×10⁻⁶ cm/s.

Consider `CNC1=N[C@@H]2[C@@H](O)[C@H](O)[C@@H]([C@@H](OCc3ccc(Oc4ccccc4)cc3)C(F)(F)F)O[C@@H]2S1` [Example 99, (3aR,5S,6S,7R,7aR)-2-(methylamino)-5-((R)-2,2,2-trifluoro-1-(4-phenoxybenzyloxy)ethyl)-5,6,7,7a-tetrahydro-3aH-pyrano[3,2-d]thiazole-6,7-diol], for which the Papp at 3 h, 1 μM stood at 21.7 ×10⁻⁶ cm/s.

In the case of `CCc1cc(CO[C@H]([C@H]2O[C@@H]3SC(NC)=N[C@@H]3[C@@H](O)[C@@H]2O)C(F)(F)F)ccc1OC` [Example 100, (3aR,5S,6S,7R,7aR)-5-((R)-1-(3-ethyl-4-methoxybenzyloxy)-2,2,2-trifluoroethyl)-2-(methylamino)-5,6,7,7a-tetrahydro-3aH-pyrano[3,2-d]thiazole-6,7-diol], the Papp at 3 h, 1 μM was 28.1 ×10⁻⁶ cm/s.

Consider `CNC1=N[C@@H]2[C@@H](O)[C@H](O)[C@@H]([C@@H](OCc3cc(C)c(OC)c(C)c3)C(F)(F)F)O[C@@H]2S1` [Example 101, (3aR,5S,6S,7R,7aR)-2-(methylamino)-5-((R)-2,2,2-trifluoro-1-(4-methoxy-3,5-dimethylbenzyloxy)ethyl)-5,6,7,7a-tetrahydro-3aH-pyrano[3,2-d]thiazole-6,7-diol], for which the Papp at 3 h, 1 μM is 28.9 ×10⁻⁶ cm/s.
